Assay results as given in patent publication US4732978A, “Novel substituted naphthyloxymethyl quinoline derivatives as anti-inflammatory and antiallergy agents” (American Home Products Corporation, priority 1986, dated 1988).

Key:
[1] = system: 5-HETE synthesis by rat glycogen-elicited polymorphonuclear leukocytes; test: Inhibition of 5-HETE synthesis by rat glycogen-elicited polymorphonuclear leukocytes (lipoxygenase); type: cell-based, rat (female Wistar); details: Leukocyte, rat PMN, A23187 stimulated; for inhibition at 50 µM: read-out: >50% Inhibitory at 50 μm (5-HETE synthesis)
Description: The assay of this Example measures the ability of the compounds of the invention to inhibit the synthesis of 5-HETE by rat glycogen-elicited polymorphonuclear leukocytes.
(§1) Peritoneal PMN are obtained from female Wistar rats (150-250 g) that received an i.p. injection of 6% glycogen (10 mL). After 24 hours, rats are killed by CO2 asphyxiation and peritoneal cells are harvested by peritoneal lavage using Ca^++ and Mg^++ free Hanks' balanced salt solution (HBSS). The peritoneal exudate is centrifuged at 400 g for 10 minutes. After centrifugation, the lavaged fluid is removed and the cell pellet is resuspended in HBSS containing Ca^++ and Mg^++ and 10 mM L-cysteine at a concentration of 2×10^7 cells/mL. To 1 mL portions of cell suspension, test drugs or vehicle are added and incubated at 37° C. for 10 minutes. Following this preincubation, the calcium ionophore (10 μM), A23187, is added together with 0.5 μCi [^14 C] arachidonic acid and further incubated for 10 minutes. The reaction is stopped by the addition of ice cold water (3 mL) and acidifying to pH 3.5. Lipoxygenase products are then extracted twice into diethyl ether. The pooled ether extracts are evaporated to dryness under nitrogen and the residue is redissolved in a small volume of methanol and spotted on aluminum backed pre-coated thin layer chromatographic plates. The samples are then co-chromatographed with authentic reference 5-HETE, in the solvent system--hexane:ether:acetic acid (50:50:3). After chromatography, the areas associated with 5-HETE standard are identified by autoradiography, cut out and quantitated by liquid scintillation.
The compounds of this invention are tested in this assay at a level of 50 μm, unless otherwise noted. The results are summarized in Table 1, where those compounds having an inhibition of >50% are designated by a "+". Some results are express as an IC50 value.

[2] = system: synthesis of cyclooxygenase oxidation product TxB2; test: Inhibition of synthesis of cyclooxygenase product TxB2 (rat polymorphonuclear leukocytes, procedure of Example 17); type: cell-based, rat (female Wistar); details: Leukocyte, rat PMN; for IC50: TxA2
Description: as §1
(§2) The procedure of Example 17 is also employed for the determination of the ability of the compounds of the invention to inhibit the synthesis of the arachidonic acid cyclooxygenase oxidation products TxB2 and PGE2.
In this assay, the procedure of Example 17 is carried out as described. However, in order to determine cyclooxygenase activity, the samples are cochromatographed with authentic reference TxB2 and PGE2 in the solvent system ethyl acetate:formic acid (80:1) and the upper phase of ethyl acetate:isoctane:acetic acid:water (110:50:20:100). After chromatography, the areas associated with TxB2 and PGE2 standards are identified by autoradiography, cut out and quantitated by liquid scintillation techniques.
(§3) The results are calculated as in Example 17.

[3] = system: AA-induced mouse ear edema; test: Arachidonic acid (AA)-induced murine ear edema test, topical; type: in vivo, mouse (Swiss Webster female); details: for % Change from Control, TOPICAL, AA: AA 1 mg/ear (footnote a), * = <0.05
Source text: (§4) The ability of the compounds of the invention to inhibit the lipoxygenase and/or cyclooxygenase pathways of arachidonic acid is examined in the in vivo arachidonic acid (AA)-/12-O-tetradecanoylphorbol acetate (TPA)-induced murine ear edema test.
(§5) According to this test, Swiss Webster female mice (Buckshire), approximately 8 weeks old, are placed into plastic boxes in groups of six. Eight groups of mice receive AA topically on the right ear, and another 8 groups receive TPA topically on the right ear. AA and TPA are dissolved in acetone at concentrations of 100 mg/mL and 100 μg/mL respectively. The phlogistics are applied to the right ear by the means of an automatic pipet. Volumes of 10 μL are applied to the inner and outer surfaces of the ear. […] The left ear (control) receives acetone delivered in the same manner. Oral and topical dosing regimens are as follows: (1) drugs are given 30 minutes prior to AA treatment, and (2) drugs are given 30 minutes after treatment with TPA.
(§6) Measurements are taken with Oditest calipers, 0-10 mm with 0.01 graduations. The right and left ears are measured after 1 hour AA-induced inflammation and 4 hours after TPA-induced inflammation.
(§7) The difference between right and left ear thickness is calculated and the significance is determined by a one way analysis of variance with Dunnett's comparisons to control (P=0.05). Drug effects are expressed as a percent change from control values: [formula]
(§8) The ED50 values are also given for these compounds where this has been determined.

[4] = system: TPA-induced mouse ear edema; test: 12-O-tetradecanoylphorbol acetate (TPA)-induced murine ear edema test, topical; type: in vivo, mouse (Swiss Webster female); details: for % Change from Control, TOPICAL, TPA: TPA 10 μg/ear (footnote b), * = <0.05
Source text: as §4, §5, §6, §7, §8

[5] = system: synthesis of cyclooxygenase oxidation product PGE2; test: Inhibition of synthesis of cyclooxygenase product PGE2 (rat polymorphonuclear leukocytes, procedure of Example 17); type: cell-based, rat (female Wistar); details: Leukocyte; rat PMN
Description: as §1, §2
In this assay, the procedure of Example 17 is carried out as described. […] After chromatography, the areas associated with TxB2 and PGE2 standards are identified by autoradiography, cut out and quantitated by liquid scintillation techniques.
as §3

[6] = system: ovalbumin induced bronchospasm; test: Inhibition of ovalbumin-induced bronchospasm mediated by endogenous mediators in sensitized guinea pigs; type: in vivo, guinea pig (male Hartley); details: 50 mg/kg intraduodenal, 10 minutes before intravenous ovalbumin challenge
Description: The assay of this Example measures the in vivo ability of the compounds of the invention to inhibit the bronchospasm induced in guinea pigs by endogenous mediators of the bronchoconstriction.
Male Hartley strain guinea pigs weighing 250-350 g are sensitized to chicken ovalbumin (OA) (10 mg i.p.) on days 1 and 3 and used starting on day 26. The animals are anesthetized with pentobarbital sodium (50 mg/kg, i.p.), bilateral vagotomy is performed, and the jugular vein is cannulated for injection of drugs and the carotid artery for monitoring blood pressure. The trachea is cannulated for artificial ventilation by a miniature Starling pump and for indirect measurement of respiratory volume changes as described, infra. Succinylcholine (2 mg/kg, i.v.) is administered to arrest spontaneous respiration. […]
Respiratory volume changes are determined by a calibrated piston whose travel is recorded, via a linear transducer, on a Beckman Dynograph recorder. Maximal bronchoconstrictor volume is determined by clamping off the trachea at the end of the experiment. Overflow volumes at minutes 1, 3 and 5 are obtained from the recorded charts.
Area under the volume overflow curve (AUC) is estimated, using the overflow values at 1, 3 and 5 minutes, and expressed as a percentage of the maximal overflow AUC (equation 1): [formula] […]

Structure (SMILES) | inhibition at 50 µM [1] [%] | inhibition at 50 µM [2] [%] | % Change from Control, TOPICAL, AA [3] [%] | % Change from Control, TOPICAL, TPA [4] [%] | IC50 [1] [µM] | TOPICAL ED50, AA [3] [mg/ear] | IC50 [5] [µM] | TOPICAL ED50, TPA [4] [mg/ear] | IC50 [2] [µM] | % Inhibition of MAX AUC [6] [%]
Brc1c(OCc2ccc3ccccc3n2)ccc2ccccc12 [Example 11, 2-[(1-Bromo-2-naphthalenyloxy)methyl]quinoline] | > 50 | > 50 |  |  |  |  |  |  |  | 
FC(F)(F)c1cccc(OCc2ccc3ccccc3n2)c1 [Example 16, 2-[[3-(trifluoromethyl)phenoxy]methyl]quinoline] | > 50 |  | 35 | 22 |  |  |  |  |  | 
c1ccc2cc(OCc3ccc4ccccc4n3)ccc2c1 [Example 9, 2-[(2-Naphthalenyloxy)methyl]quinoline] | > 50 | > 50 |  |  |  |  |  |  |  | 
c1ccc2nc(COc3cccc4ccccc34)ccc2c1 [Example 10, 2-[(1-Naphthalenyloxy)methyl]quinoline] | > 50 | > 50 |  |  | 0.4 | 0.3 | > 100 | 0.7 | 6.3 | 
c1ccc2nc(COc3cccc4cccnc34)ccc2c1 [Example 15, 2-[(8-quinolinyloxy)-methyl]quinoline] | > 50 |  | 52 | 53 |  |  |  |  |  | 
Clc1ccc(OCc2ccc3ccccc3n2)cc1 [Example 4, 2-[(4-Chlorophenoxy)methyl]quinoline] | > 50 | > 50 | -43 | -45 |  | 1.3 |  |  |  | 
Brc1ccc(SCc2nc3ccccc3s2)cc1 [Example 13] | > 50 | > 50 |  |  |  |  |  |  |  | 
Clc1ccc(OCc2ccc3ccccc3n2)cc1Cl [Example 7, 2-[(3,4-Dichlorophenoxy)methyl]quinoline] | > 50 | > 50 | -54 | -21 |  |  |  |  |  | 
Clc1cccc(OCc2ccc3ccccc3n2)c1 [Example 3, 2-[(3-Chlorophenoxy)methyl]quinoline] | > 50 | > 50 | -67 | -60 | 1.5 | 0.3 | > 100 |  | 7.2 | 
Brc1ccc(OCc2ccc3ccccc3n2)cc1 [Example 6, 2-[(4-Bromophenoxy)methyl]quinoline] | > 50 | > 50 | -36 | -22 |  |  |  |  |  | 
Brc1cccc(OCc2ccc3ccccc3n2)c1 [Example 1, 2-[(3-Bromophenoxy)methyl]quinoline] | > 50 | > 50 | -43 | -62 |  | 2.0 |  | 0.7 |  | > 50
Brc1ccccc1OCc1ccc2ccccc2n1 [Example 8, 2-[(2-Bromophenoxy)methyl]quinoline] | > 50 | > 50 | -32 | -14 |  |  |  |  |  | 
Fc1cccc(OCc2ccc3ccccc3n2)c1 [Example 5, 2-[(3-Fluorophenoxy)methyl]quinoline] | > 50 | > 50 | -63 | -47 | 9.9 | 0.3 | > 100 | 1.6 | 3.2 | 
Brc1cccc(SCc2nc3ccccc3s2)c1 [Example 14] | > 50 | > 50 |  |  |  |  |  |  |  | 
Fc1ccccc1OCc1ccc2ccccc2n1 [Example 2, 2-[(2-Fluorophenoxy)methyl]quinoline] | > 50 | > 50 | -40 | -42 |  |  |  |  |  | 
